According to patent US20060167081A1, “Ep4 receptor agonists” (priority 2002, published 2006):

Legend:
[1] = test system: EP2 mRNA; assay: EP2 mRNA in RP-1 periosteal cells (Northern blot); format: cell-based, rat; conditions: RP-1 cells
Procedure: (§1) Cell Cultures—RP-1 periosteal cells are spontaneously immortalized from primary cultures of periosteal cells from tibae of 4-week old Sprague-Dawley rats and are cultured in DMEM (BRL, Gaithersburg, Md.) with 10% fetal bovine serum (JRP Biosciences, Lenexa, KS). […] RCT-1 and RCT-3 are clonal cell lines immortalized by SV40 large T antigen from cells released from fetal rat calvair by a cmbination collagenase/hyaluronidase digestion. RCT-1 cells, derived from cells released during the first 10 minutes of digestion (fraction I), are cultured in RPMI 1640 medium (BRL) with 10% fetal bovine serum and 0.4 mg/ml G418 (BRL). These cells differentiate and express osteoblastic features upon retinoic acid treatment. RCT-3 cells, immortalized from osteoblast-enriched fraction m cells, are cultured in F-12 medium (BRL) with 5% Fetal bovine serum and 0.4 mg/ml G418. TRAB-11 cells are also immortalized by SV40 large T antigen from adult rat tibia and are cultured in RPMI 1640 medium with 10% FBS and 0.4 mg/ml G418. ROS 17/12.8 rat osteosarcoma cells are cultured in F-12 containing 5% PBS. Osteoblast-enriched (fraction III) primary fetal rat calvaria cells are obtained by collagenase/hyaluronidase digestion of calvariae of 19 day-old rat fetuses. […]

[2] = test system: intracellular cAMP; assay: Intracellular cAMP in osteoblastic cell lines; format: cell-based, rat
Procedure: as §1, with “fetuses. See Rodan et al., Growth stimulation of rat calvaria osteoblastic cells by acidic FGF, Endocrinology, 121, 1919-1923 (1987), which is incorporated by reference herein in its entirety. Cells are released during 30-50 minutes digestion (fraction III) and are cultured in F-12 medium containing 5% FBS. P815 (mouse mastocytoma) cells, cultured in Eagles MEM with 10% FBS, and NRK (normal rat kidney fibroblasts) cells, cultured in DMEM with 10% […], are used as positive and negative controls for the expression of EP4, respectively. See Abramovitz et al., Human prostanoid receptors: cloning and characterization. In: Samulesson B. et al. ed) Advances in prostaglandin, Thrombosznes and leukotriene research, vol.” for “fetuses.”

[3] = test system: EP4 mRNA; assay: EP4 mRNA levels in vivo in bone tissue (Northern blot); parameters: species or system rat; conditions: tibial diaphysis, five-week-old male rats, 3-6 mg/Kg
From the text: Animal Procedures—For mRNA localization experiments, 5-week old Sprague-Dawley rats (Charles River) are euthanized by CO2, their tibiae and calvariae are excised, cleaned of soft tissues and frozen immediately in liquid nitrogen. […] Animals are euthanized at several time points post-injection and their tibiae and calvariae, as well as samples from lung and kidney tissues are frozen in liquid nitrogen.
Northern Blot Analysis—Total RNA is extracted from the tibial metaphysis or diaphysis and calvaria using a guanidinium isothiocyanate-phenol-chloroform method after pulverizing frozen bone samples by a tissue homogenizer. See P. Chomczynski et al., Single-step method of RNA isolation by acid guanidium thiocyanate-phenol-chloroform extraction., Analyt Biochem, 162, 156-159 (1987), which is incorporated by reference herein in its entirety. RNA samples ([…]) are separated on 0.9% agarose/formaldehyde gels and transferred onto nylon membranes (Boehringer Mannheim, Germany). Membranes are prehybridized in Hybrisol I (Oncor, Gaithersburg, Md.) and 0.5 mg/ml sonicated salmon sperm DNA (Boehringer) at 42° C. for 3 hours and are hybridized at 420C with rat EP2 and mouse EP4 cDNA probes labeled with [^32P]-dCTP (Amersham, Buckinghamshire, UK) by random priming using the rediprime kit (Amersham). […]

[4] = test system: EP4 mRNA; assay: Localization of EP4 mRNA expression in bone tissue (in situ hybridization); format: in vivo, rat; conditions: single anabolic dose, rats
Procedure: Animal Procedures—For mRNA localization experiments, 5-week old Sprague-Dawley rats (Charles River) are euthanized by CO2, their tibiae and calvariae are excised, cleaned of soft tissues and frozen immediately in liquid nitrogen. For EP4 regulation experiments, 6-week old rats are given a single injection of either vehicle (7% ethanol in sterile water) or an anabolic dose of PGE2 (Cayman Chemical, Ann Arbor, Mich.), 3-6 mg/kg in the same vehicle) intraperitoneally. Animals are euthanized at several time points post-injection and their tibiae and calvariae, as well as samples from lung and kidney tissues are frozen in liquid nitrogen.
In-Situ Hybridization—Frozen tibiae are sectioned coronally at […] thickness and sections are mounted on charged slides (Probe On Plus, Fisher Scientific, Springfield, N.J.) and are kept at −70° C. until hybridization. cRNA probes are labeled with ^35S-UTPgS ([CN, Costa Mesa, CA) using a Riboprobe II kit (Promega Madison, Wis.). Hybridization is performed overnight at 50° C. […]
Localization of EP4 mRNA expression in bone tissue—In situ hybridization is used in order to localize cells expressing EP4 in bone. In control experiment (vehicle-injected) rats, low expression of EP4 is detected in bone marrow cells. […]

[5] = test system: EP2 mRNA; assay: EP2 mRNA in vivo in bone tissue (Northern blot); parameters: species or system rat
[6] = test system: EP4 mRNA; assay: EP4 mRNA levels in bone derived cell lines (Northern blot); format: cell-based, rat
Procedure: as §1, with “fetuses. See Rodan et al., Growth stimulation of rat calvaria osteoblastic cells by acidic FGF, Endocrinology, 121, 1919-1923 (1987), which is incorporated by reference herein in its entirety. Cells are released during 30-50 minutes digestion (fraction III) and are cultured in F-12 medium containing 5% FBS. P815 (mouse mastocytoma) cells, cultured in Eagles MEM with 10% FBS, and NRK (normal rat kidney fibroblasts) cells, cultured in DMEM with 10% […], are used as positive and negative controls for the expression of EP4, respectively. See Abramovitz et al., Human prostanoid receptors: cloning and characterization. In: Samulesson B. et al. ed) Advances in prostaglandin, Thrombosznes and leukotriene research, vol.” for “fetuses.”

CCCCC[C@H](O)/C=C/[C@H]1[C@H](O)CC(=O)[C@@H]1C/C=C\CCCC(=O)O [PGE2]
induction of EP2 mRNA [1]: does not induce | effect on intracellular cAMP ([2]; RCT-3 cells): markedly induced | effect on intracellular cAMP ([2]; ROS 17/2.8 cells): no effect | effect on intracellular cAMP ([2]; TRAB-11 cells): markedly induced | time of peak of EP4 mRNA levels after injection [3]: 2 h | EP4 mRNA levels ([3]; systemic): rapidly increased | expression of EP4 in bone marrow cells [4]: increased | induction of EP2 mRNA [5]: does not induce | EP4 mRNA levels ([6]; RCT-3 cells): no effect | EP4 mRNA levels ([6]; RP-1 periosteal cells, 10^-6 M): rapidly increases | time of peak of EP4 mRNA levels after treatment ([6]; RP-1 periosteal cells, 10^-6 M): 2 h
